Results published in patent publication US20210371351A1, “MIXTURES COMPRISING AT LEAST TWO DIFFERENT NITRIFICATION INHIBITORS SELECTED FROM 2-(3,4-DIMETHYL-1H-PYRAZOL-1-YL)SUCCINIC ACID (DMPSA), 3,4-DIMETHYL PYRAZOLIUM GLYCOLATE (DMPG) AND OTHER COMPOUNDS” (BASF SE, priority 2017, published 2021).

What was measured:
nitrification [1] = test: Example 4: soil column trial (soil Limburgerhof), DMPSA and DMPP, other weight ratios; incubation 10 d at 15° C.; % inhibition of NO3-N formation (Böhland), Colby; conditions: 10 days of incubation at 15° C.; 0.005% DMPP, 0.45% DMPSA
Description: The effect on NH4+ retention and NH4+ to NO3− ratios in the soil after fertilization of ammonium sulfate with the addition of DMPP, DMPSA or a combination of DMPP and DMPSA was investigated in column trials simulating climatic conditions of spring time in central Europe. Soil Limburgerhof (pH(CaCl2) 6.8, texture: 73% sand; 24% silt, 3% clay) was filled dry into a glass column with an inner width of 4 cm. At the bottom 0.4 g cotton wool was placed above which a frit (Co. Robu, pore size 1) was placed above which 100 g of 2 mm sieved soil Limburgerhof was layered. The soil height in the column was about 7 cm. Before fertilization the soil was brought to about 60% of its water holding capacity (WHC) be adding 14.4 mL of deionized water. Per column 10 mg NH4—N as ammonium sulfate was fertilized or not (control) together or not with 0.005% or 0.015% DMPP (DMPP obtained from BASF SE), 0.45% DMPSA (DMPSA used as free acid obtained from BASF SE) and […] or 0.015% DMPP plus 0.45% DMPSA (% of nitrification inhibitor w/w of NH4-N). Every treatment was replicated three times. After fertilization, 50 mL demineralized water was carefully and slowly placed on top of each column which equals about 31 mm precipitation. After 24 h the eluate was collected and by sucking off the soil to bring it back to about 60% of its WHC. All handlings including soil preparation, fertilization and the temperature of the water for both wetting the soil and the artificial precipitation up to the collection of the eluate 24 h after fertilization was performed at 5° C.
Thereafter, the columns were incubated for 10 d or 20 d at constantly 15° C. in an incubator. After 7 d and 14 d water was added by weight where needed to bring the soils uniformly to 60% WHC. After 10 d or 20 d the soil was removed from the columns and extracted with 1% (w/w) K2SO4 solution by shaking for 2 h at room temperature. The filtrated extract was then analyzed for NH4+ and NO3− colorimetrical by an autoanalyzer.
To calculate the inhibition of nitrate formation by the nitrification inhibitors during the incubation, the above-mentioned Böhland equation was used. To examine synergistic effects of the combination of DMPP+DMPSA the formula by Colby (Colby, S.R., “Calculating synergistic and antagonistic responses of herbicide Combinations”, Weeds, 15, pp. 20-22, 1967) was used. To determine background levels of NH4+ to NO3−, every treatment was also extracted immediately after fertilization and after leaching prior to the further incubation at 15° C. for 10 d or 20 d.

nitrification [2] = test: Example 5: soil incubation in bottles with ammonium sulfate, DMPSA, DCD or mixtures, 5 to 15° C., 0 up to 56 days; recovery NH4 (RE/RC), net recovery NH4 (NE/NC), inhibition of NO3 formation (IE/IC, Böhland; Colby); design: unit not given here
Experimental: 100 g soil is filled into 500 ml plastic bottles (e.g. soil sampled from the field) and is moistened to 50% water holding capacity. The soil is incubated at 20° C. for two weeks to activate the microbial biomass. 1 ml test solution, containing the compositions and mixtures of the invention in the appropriate concentration, or DMSO and 5 to 10 mg nitrogen in the form of ammoniumsulfate-N is added to the soil and everything mixed well. Bottles are capped but loosely to allow air exchange. The bottles are then incubated at 5 to 15° C. for 0 up to 56 days.
For analysis, 300 ml of a 1% K2SO4-solution is added to the bottle containing the soil and shaken for 2 hrs in a horizontal shaker at 150 rpm. Then the whole solution is filtered through a Macherey-Nagel Filter MN 807′/. Ammonium and nitrate content is then analyzed in the filtrate in an autoanalyzer at 550 nm (Merck, AA11).
The Böhland equation is described in Böhland, H., et al. (1973) “Mittel zur Hemmung bzw. Regelung der Nitrifikation von Ammoniumstickstoff in Kulturböden”. DDR-Wirtschaftspatent (Economic patent of the German Democratic Republic) C 05c 169 727. Cited by: Peschke, H. (1985) “Zur Bewertung der inhibierenden Wirkung von Nitrifiziden im Boden”, Zbl. Mikrobiol. 140, pp. 583-588.

## 2-(3,4-dimethyl-1H-pyrazol-1-yl)succinic acid and/or 2-(4,5-dimethyl-1H-pyrazol-1-yl)succinic acid [DMPSA]
Nitrification [1]
  During incubation: % inhibition of NO3—N formation by NI acc. to Böhland equation (1973) (MV): 22.9%
  Net NI effect % NH4 from fertilized NH4 (MV): 9.36%
  Ratio NH4—N/NO3—N (MV): 0.20
  Soil mg/100 g NH4—N (MV): 0.96 mg/100 g
  Soil mg/100 g NO3—N (MV): 5.15 mg/100 g
Nitrification [2]; IT5° C., DAT10, % a.i.: DMPSA 0.5, DCD 1, DMPSA + DCD 0.5 + 1 (1:2)
  IE inhibition of NO3 formation: 18
Nitrification [2]; IT5° C., DAT10, % a.i.: DMPSA 0.5, DCD 3, DMPSA + DCD 0.5 + 3 (1:6)
  IE inhibition of NO3 formation: 18
Nitrification [2]; IT5° C., DAT20, % a.i.: DMPSA 0.5, DCD 1, DMPSA + DCD 0.5 + 1 (1:2)
  IE inhibition of NO3 formation: 20
Nitrification [2]; IT5° C., DAT20, % a.i.: DMPSA 0.5, DCD 3, DMPSA + DCD 0.5 + 3 (1:6)
  IE inhibition of NO3 formation: 20
Nitrification [2]; IT5° C., DAT28, % a.i. DMPSA 0.25, DCD 1
  IE (inhibition of NO3 formation, Böhland): 77
Nitrification [2]; IT5° C., DAT28, % a.i. DMPSA 0.25, DCD 3
  IE (inhibition of NO3 formation, Böhland): 77
Nitrification [2]; IT5° C., DAT28, % a.i. DMPSA 0.30, DCD 0.05
  IE (inhibition of NO3 formation, Böhland): 42
Nitrification [2]; IT5° C., DAT28, % a.i. DMPSA 0.50, DCD 0.08
  IE (inhibition of NO3 formation, Böhland): 41
Nitrification [2]; IT5° C., DAT28, % a.i.: DMPSA 0.50, DCD 0.0125, DMPSA + DCD 0.50 + 0.0125 (40:1)
  IE inhibition of NO3 formation: 44
Nitrification [2]; IT5° C., DAT28, % a.i.: DMPSA 0.50, DCD 0.0143, DMPSA + DCD 0.50 + 0.0143 (35:1)
  IE inhibition of NO3 formation: 44
Nitrification [2]; IT5° C., DAT28, % a.i.: DMPSA 0.50, DCD 0.0167, DMPSA + DCD 0.50 + 0.0167 (30:1)
  IE inhibition of NO3 formation: 44
Nitrification [2]; IT5° C., DAT30, % a.i.: DMPSA 0.5, DCD 1, DMPSA + DCD 0.5 + 1 (1:2)
  IE inhibition of NO3 formation: 66
Nitrification [2]; IT5° C., DAT30, % a.i.: DMPSA 0.5, DCD 3, DMPSA + DCD 0.5 + 3 (1:6)
  IE inhibition of NO3 formation: 66
Nitrification [2]; IT5° C., DAT42, % a.i. DMPSA 0.25, DCD 1
  IE (inhibition of NO3 formation, Böhland): 75
Nitrification [2]; IT5° C., DAT42, % a.i. DMPSA 0.25, DCD 3
  IE (inhibition of NO3 formation, Böhland): 75
Nitrification [2]; IT5° C., DAT42, % a.i. DMPSA 0.30, DCD 0.05
  IE (inhibition of NO3 formation, Böhland): 55
Nitrification [2]; IT5° C., DAT42, % a.i. DMPSA 0.50, DCD 0.08
  IE (inhibition of NO3 formation, Böhland): 53
Nitrification [2]; IT5° C., DAT56, % a.i. DMPSA 0.25, DCD 1
  IE (inhibition of NO3 formation, Böhland): 83
Nitrification [2]; IT5° C., DAT56, % a.i. DMPSA 0.25, DCD 3
  IE (inhibition of NO3 formation, Böhland): 83
Nitrification [2]; IT5° C., DAT56, % a.i. DMPSA 0.30, DCD 0.05
  IE (inhibition of NO3 formation, Böhland): 63
Nitrification [2]; IT10° C., DAT10, % a.i.: DMPSA 0.5, DCD 1, DMPSA + DCD 0.5 + 1 (1:2)
  IE inhibition of NO3 formation: 70
Nitrification [2]; IT10° C., DAT10, % a.i.: DMPSA 0.5, DCD 3, DMPSA + DCD 0.5 + 3 (1:6)
  IE inhibition of NO3 formation: 70
Nitrification [2]; IT10° C., DAT20, % a.i.: DMPSA 0.5, DCD 1, DMPSA + DCD 0.5 + 1 (1:2)
  IE inhibition of NO3 formation: 7
Nitrification [2]; IT10° C., DAT20, % a.i.: DMPSA 0.5, DCD 3, DMPSA + DCD 0.5 + 3 (1:6)
  IE inhibition of NO3 formation: 7
Nitrification [2]; IT10° C., DAT28, % a.i. DMPSA 0.25, DCD 1
  IE (inhibition of NO3 formation, Böhland): 59
Nitrification [2]; IT10° C., DAT28, % a.i. DMPSA 0.25, DCD 3
  IE (inhibition of NO3 formation, Böhland): 59
Nitrification [2]; IT10° C., DAT28, % a.i. DMPSA 0.30, DCD 0.05
  IE (inhibition of NO3 formation, Böhland): 51
Nitrification [2]; IT10° C., DAT28, % a.i. DMPSA 0.50, DCD 0.08
  IE (inhibition of NO3 formation, Böhland): 46
